Columns and labels:
Test in all cases: radiometric filter-binding kinase assay, Kinase HotSpot
Conditions in all cases: compound 0.5 µM; ATP 10 µM
PNCK (human) = PNCK (human) (UniProt Q6P2M8)
BRSK2 (human) = BRSK2 (human) (UniProt Q8IWQ3)
GRK7 (human) = GRK7 (human) (UniProt Q8WTQ7)
[1] = system: MAP2K6 (human), P52564 [S207E/T211E]
ROS1 (human) = ROS1 (human) (UniProt P08922)
[2] = system: FLT4 (human), P35916 [Q890H]
LTK (human) = LTK (human) (UniProt P29376)
PRKCI (human) = PRKCI (human) (UniProt P41743)
WNK2 (human) = WNK2 (human) (UniProt Q9Y3S1)
MELK (human) = MELK (human) (UniProt Q14680)
LRRK2 (human) = LRRK2 (human) (UniProt Q5S007)
TYRO3 (human) = TYRO3 (human) (UniProt Q06418)
Chain of TYRO3 (human) (Q06418 whole entry, looked up): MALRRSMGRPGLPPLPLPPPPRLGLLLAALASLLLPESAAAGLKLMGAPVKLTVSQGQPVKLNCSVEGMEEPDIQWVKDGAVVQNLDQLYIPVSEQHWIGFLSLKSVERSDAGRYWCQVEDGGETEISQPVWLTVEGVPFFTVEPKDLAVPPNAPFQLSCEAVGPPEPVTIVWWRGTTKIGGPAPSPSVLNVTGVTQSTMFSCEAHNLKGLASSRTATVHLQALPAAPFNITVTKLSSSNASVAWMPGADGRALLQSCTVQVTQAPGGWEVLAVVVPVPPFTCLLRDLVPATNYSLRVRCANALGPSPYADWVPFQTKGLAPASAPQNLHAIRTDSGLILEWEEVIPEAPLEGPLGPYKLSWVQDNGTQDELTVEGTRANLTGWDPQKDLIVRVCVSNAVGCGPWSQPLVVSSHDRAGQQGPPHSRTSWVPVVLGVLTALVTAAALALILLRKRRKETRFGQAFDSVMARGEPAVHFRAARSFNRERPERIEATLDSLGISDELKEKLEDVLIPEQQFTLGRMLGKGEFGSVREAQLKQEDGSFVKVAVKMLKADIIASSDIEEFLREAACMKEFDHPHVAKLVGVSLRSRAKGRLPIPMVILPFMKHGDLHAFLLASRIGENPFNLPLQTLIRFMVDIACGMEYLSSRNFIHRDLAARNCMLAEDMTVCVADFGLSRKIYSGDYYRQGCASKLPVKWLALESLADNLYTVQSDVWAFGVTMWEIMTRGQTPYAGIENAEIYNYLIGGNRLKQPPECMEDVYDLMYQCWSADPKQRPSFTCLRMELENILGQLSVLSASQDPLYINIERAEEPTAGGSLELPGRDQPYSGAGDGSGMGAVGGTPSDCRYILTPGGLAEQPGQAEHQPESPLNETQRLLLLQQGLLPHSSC

PTK2 (human) = PTK2 (human) (UniProt Q05397)
MAPK9 (human) = MAPK9 (human) (UniProt P45984)
CDK2 CCNE1 (human) = CDK2 CCNE1 (human) (UniProt P24941+P24864)
PIM1 (human) = PIM1 (human) (UniProt P11309)
NEK7 (human) = NEK7 (human) (UniProt Q8TDX7)
FYN (human) = FYN (human) (UniProt P06241)
NEK2 (human) = NEK2 (human) (UniProt P51955)
MAPK11 (human) = MAPK11 (human) (UniProt Q15759)
PTK2B (human) = PTK2B (human) (UniProt Q14289)
MARK3 (human) = MARK3 (human) (UniProt P27448)
ROCK2 (human) = ROCK2 (human) (UniProt O75116)
CDK6 CCND1 (human) = CDK6 CCND1 (human) (UniProt Q00534+P24385)
TEC (human) = TEC (human) (UniProt P42680)
Chain of TEC (human) (P42680 whole entry, looked up): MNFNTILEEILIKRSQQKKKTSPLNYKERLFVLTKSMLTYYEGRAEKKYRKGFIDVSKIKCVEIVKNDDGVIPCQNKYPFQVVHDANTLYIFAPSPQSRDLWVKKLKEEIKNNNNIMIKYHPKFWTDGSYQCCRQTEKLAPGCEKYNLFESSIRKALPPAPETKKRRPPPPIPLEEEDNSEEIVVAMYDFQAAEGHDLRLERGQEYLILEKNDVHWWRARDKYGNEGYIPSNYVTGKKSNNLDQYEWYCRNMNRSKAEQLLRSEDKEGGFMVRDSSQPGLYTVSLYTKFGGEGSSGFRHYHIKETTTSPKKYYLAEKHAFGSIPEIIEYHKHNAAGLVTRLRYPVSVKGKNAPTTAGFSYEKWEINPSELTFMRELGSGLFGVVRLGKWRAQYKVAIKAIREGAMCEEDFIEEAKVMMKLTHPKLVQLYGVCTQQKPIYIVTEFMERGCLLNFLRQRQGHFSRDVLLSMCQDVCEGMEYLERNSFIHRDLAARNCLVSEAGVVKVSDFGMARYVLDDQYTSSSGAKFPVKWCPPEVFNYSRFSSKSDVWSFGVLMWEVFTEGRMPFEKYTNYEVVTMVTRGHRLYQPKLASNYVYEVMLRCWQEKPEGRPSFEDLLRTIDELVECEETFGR

EPHA1 (human) = EPHA1 (human) (UniProt P21709)
ADRBK2 (human) = ADRBK2 (human) (UniProt P35626)
RPS6KB2 (human) = RPS6KB2 (human) (UniProt Q9UBS0)
RAF1 (human) = RAF1 (human) (UniProt P04049)
CSNK1G1 (human) = CSNK1G1 (human) (UniProt Q9HCP0)
STK39 (human) = STK39 (human) (UniProt Q9UEW8)
TBK1 (human) = TBK1 (human) (UniProt Q9UHD2)
MINK1 (human) = MINK1 (human) (UniProt Q8N4C8)
CLK1 (human) = CLK1 (human) (UniProt P49759)
CDK5 CDK5R1 p25 (human) = CDK5 CDK5R1 p25 (human) (UniProt Q00535+Q15078)
Chain of CDK5 CDK5R1 p25 (human) (Q00535 whole entry, looked up): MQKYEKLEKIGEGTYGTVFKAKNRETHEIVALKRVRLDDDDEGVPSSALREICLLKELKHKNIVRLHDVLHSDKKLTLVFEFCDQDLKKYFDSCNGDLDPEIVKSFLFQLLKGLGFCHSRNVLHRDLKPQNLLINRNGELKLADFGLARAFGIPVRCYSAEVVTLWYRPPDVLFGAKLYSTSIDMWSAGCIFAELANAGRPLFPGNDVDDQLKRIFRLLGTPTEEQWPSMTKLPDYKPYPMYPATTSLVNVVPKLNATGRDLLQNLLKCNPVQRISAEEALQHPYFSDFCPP
Chain of CDK5 CDK5R1 p25 (human) (Q15078 whole entry, looked up): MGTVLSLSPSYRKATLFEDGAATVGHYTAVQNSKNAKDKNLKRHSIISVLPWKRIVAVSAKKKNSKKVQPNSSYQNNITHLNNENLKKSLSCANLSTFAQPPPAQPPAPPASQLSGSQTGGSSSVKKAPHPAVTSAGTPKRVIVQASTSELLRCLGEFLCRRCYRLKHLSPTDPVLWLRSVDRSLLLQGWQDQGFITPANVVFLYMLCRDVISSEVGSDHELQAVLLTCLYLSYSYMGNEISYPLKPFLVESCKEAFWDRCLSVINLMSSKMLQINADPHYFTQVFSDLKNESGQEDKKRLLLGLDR

MAP3K5 (human) = MAP3K5 (human) (UniProt Q99683)
CDK1 CCNA2 (human) = CDK1 CCNA2 (human) (UniProt P06493+P20248)
EPHA4 (human) = EPHA4 (human) (UniProt P54764)
CHEK2 (human) = CHEK2 (human) (UniProt O96017)
MARK4 (human) = MARK4 (human) (UniProt Q96L34)
ADRBK1 (human) = ADRBK1 (human) (UniProt P25098)
PDPK1 (human) = PDPK1 (human) (UniProt O15530)

Chain of ROS1 (human) (P08922 whole entry, looked up): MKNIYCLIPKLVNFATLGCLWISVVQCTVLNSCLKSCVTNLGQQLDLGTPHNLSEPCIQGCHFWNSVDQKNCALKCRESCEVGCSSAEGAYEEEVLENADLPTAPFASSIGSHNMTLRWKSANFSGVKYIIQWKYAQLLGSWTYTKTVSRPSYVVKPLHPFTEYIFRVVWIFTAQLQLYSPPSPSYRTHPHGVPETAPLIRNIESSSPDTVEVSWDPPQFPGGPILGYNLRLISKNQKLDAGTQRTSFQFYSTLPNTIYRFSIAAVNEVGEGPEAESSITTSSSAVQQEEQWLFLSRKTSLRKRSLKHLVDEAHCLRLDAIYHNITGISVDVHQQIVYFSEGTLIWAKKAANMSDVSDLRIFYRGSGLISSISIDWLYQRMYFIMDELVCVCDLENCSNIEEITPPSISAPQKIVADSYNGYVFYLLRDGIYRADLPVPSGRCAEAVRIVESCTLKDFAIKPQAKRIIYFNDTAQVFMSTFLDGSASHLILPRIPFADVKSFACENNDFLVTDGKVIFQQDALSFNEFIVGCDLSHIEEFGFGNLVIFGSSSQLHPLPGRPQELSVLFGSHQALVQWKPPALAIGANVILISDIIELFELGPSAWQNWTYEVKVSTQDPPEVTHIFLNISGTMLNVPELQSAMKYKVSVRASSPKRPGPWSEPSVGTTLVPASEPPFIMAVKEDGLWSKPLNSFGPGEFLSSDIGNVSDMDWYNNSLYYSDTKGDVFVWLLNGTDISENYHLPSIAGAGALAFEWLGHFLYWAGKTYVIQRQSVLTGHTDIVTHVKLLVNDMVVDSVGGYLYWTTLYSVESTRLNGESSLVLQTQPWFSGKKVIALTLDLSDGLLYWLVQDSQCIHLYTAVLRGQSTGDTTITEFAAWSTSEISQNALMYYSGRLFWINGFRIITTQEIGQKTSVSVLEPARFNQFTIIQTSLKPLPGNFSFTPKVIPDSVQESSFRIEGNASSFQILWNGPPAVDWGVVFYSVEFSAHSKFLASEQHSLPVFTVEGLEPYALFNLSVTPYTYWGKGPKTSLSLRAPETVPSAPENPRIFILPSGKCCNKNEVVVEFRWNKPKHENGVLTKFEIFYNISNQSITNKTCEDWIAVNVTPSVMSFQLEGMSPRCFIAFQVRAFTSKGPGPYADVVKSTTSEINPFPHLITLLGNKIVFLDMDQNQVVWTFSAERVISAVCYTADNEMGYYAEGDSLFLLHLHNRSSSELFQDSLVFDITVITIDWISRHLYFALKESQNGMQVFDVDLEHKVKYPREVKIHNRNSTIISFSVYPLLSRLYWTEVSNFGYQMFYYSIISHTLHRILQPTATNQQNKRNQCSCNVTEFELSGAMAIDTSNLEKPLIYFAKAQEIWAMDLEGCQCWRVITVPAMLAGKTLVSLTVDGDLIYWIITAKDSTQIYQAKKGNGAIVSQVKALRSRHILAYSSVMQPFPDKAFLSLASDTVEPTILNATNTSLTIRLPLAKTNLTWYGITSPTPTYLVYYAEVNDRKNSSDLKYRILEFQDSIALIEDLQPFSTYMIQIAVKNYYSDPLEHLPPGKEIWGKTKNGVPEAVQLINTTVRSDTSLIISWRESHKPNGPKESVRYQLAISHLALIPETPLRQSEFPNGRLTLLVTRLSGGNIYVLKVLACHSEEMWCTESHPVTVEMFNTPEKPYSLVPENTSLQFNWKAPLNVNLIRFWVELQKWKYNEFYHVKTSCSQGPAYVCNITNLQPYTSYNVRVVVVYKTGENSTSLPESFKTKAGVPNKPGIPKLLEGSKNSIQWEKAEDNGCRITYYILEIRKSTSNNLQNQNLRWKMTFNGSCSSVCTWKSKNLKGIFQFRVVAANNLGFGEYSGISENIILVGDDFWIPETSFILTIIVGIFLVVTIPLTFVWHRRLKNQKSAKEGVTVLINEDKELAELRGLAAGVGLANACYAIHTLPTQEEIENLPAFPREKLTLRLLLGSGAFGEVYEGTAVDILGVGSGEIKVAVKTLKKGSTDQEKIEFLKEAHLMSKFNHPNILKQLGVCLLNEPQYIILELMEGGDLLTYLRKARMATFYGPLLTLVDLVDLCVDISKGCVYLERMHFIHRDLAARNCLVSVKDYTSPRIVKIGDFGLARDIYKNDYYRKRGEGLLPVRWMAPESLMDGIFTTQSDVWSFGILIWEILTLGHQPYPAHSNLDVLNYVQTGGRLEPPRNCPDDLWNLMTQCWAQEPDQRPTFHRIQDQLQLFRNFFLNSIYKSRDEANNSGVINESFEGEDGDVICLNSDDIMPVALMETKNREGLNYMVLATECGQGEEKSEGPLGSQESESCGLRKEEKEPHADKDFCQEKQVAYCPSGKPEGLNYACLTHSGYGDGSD
Chain of MAP2K6 (human), P52564 [S207E/T211E] (P52564 whole entry S207E/T211E, looked up): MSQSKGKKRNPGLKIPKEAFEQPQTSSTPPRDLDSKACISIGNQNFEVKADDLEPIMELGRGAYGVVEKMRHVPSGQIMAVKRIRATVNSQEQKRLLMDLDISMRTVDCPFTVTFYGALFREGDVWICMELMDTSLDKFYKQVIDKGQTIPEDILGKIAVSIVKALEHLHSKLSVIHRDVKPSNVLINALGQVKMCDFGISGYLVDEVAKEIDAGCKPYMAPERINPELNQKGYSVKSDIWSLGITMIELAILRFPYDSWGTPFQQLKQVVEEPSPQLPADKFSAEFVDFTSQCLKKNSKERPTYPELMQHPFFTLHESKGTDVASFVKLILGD

Work on `O=C1C(Cl)=C(N2C(=O)CCC2=O)C(=O)c2ccccc21` yielded a residual activity (PNCK (human)) of 100%, a residual activity (BRSK2 (human)) of 100% and a residual activity (GRK7 (human)) of 109%. The residual activity [1] was 107%, the residual activity (ROS1 (human)) was 95.8% and the residual activity [2] was 102%. For the same compound, the residual activity (LTK (human)) was 100%, the residual activity (PRKCI (human)) was 96.6% and the residual activity (WNK2 (human)) was 108%. For the same compound, the residual activity (MELK (human)) was 96.4%, the residual activity (LRRK2 (human)) was 103% and the residual activity (TYRO3 (human)) was 114%. It also gave a residual activity (PTK2 (human)) of 98.4%, a residual activity (MAPK9 (human)) of 93.6% and a residual activity (CDK2 CCNE1 (human)) of 90.3%. For the same compound, the residual activity (PIM1 (human)) was 100%, the residual activity (NEK7 (human)) was 95.4% and the residual activity (FYN (human)) was 111%. The residual activity (NEK2 (human)) was 88.6%, the residual activity (MAPK11 (human)) was 105% and the residual activity (PTK2B (human)) was 105%. It also gave a residual activity (MARK3 (human)) of 87.8%, a residual activity (ROCK2 (human)) of 91.5% and a residual activity (CDK6 CCND1 (human)) of 100%. It also gave a residual activity (TEC (human)) of 101%, a residual activity (EPHA1 (human)) of 97.6% and a residual activity (ADRBK2 (human)) of 103%. The residual activity (RPS6KB2 (human)) was 102%, the residual activity (RAF1 (human)) was 93% and the residual activity (CSNK1G1 (human)) was 147%. It also gave a residual activity (STK39 (human)) of 97.3%, a residual activity (TBK1 (human)) of 97.9% and a residual activity (MINK1 (human)) of 95.6%. For the same compound, the residual activity (CLK1 (human)) was 103%, the residual activity (CDK5 CDK5R1 p25 (human)) was 87.3% and the residual activity (MAP3K5 (human)) was 99.1%. The residual activity (CDK1 CCNA2 (human)) was 99.8%, the residual activity (EPHA4 (human)) was 101% and the residual activity (CHEK2 (human)) was 95.7%. It also gave a residual activity (MARK4 (human)) of 99.6%, a residual activity (ADRBK1 (human)) of 105% and a residual activity (PDPK1 (human)) of 100%.

In the case of `Cn1c2ccccc2c2c3c(c4c5ccccc5n(CCC#N)c4c21)CNC3=O`, the residual activity (PNCK (human)) is reported as 103%, the residual activity (BRSK2 (human)) is reported as 26.3% and the residual activity (GRK7 (human)) is reported as 37.9%. For the same compound, the residual activity [1] was 21.1%, the residual activity (ROS1 (human)) was 1.18% and the residual activity [2] was 38.2%. The residual activity (LTK (human)) was 8.79%, the residual activity (PRKCI (human)) was 91.6% and the residual activity (WNK2 (human)) was 103%. It also gave a residual activity (MELK (human)) of 21.1%, a residual activity (LRRK2 (human)) of 30.5% and a residual activity (TYRO3 (human)) of 85.6%. The residual activity (PTK2 (human)) was 77%, the residual activity (MAPK9 (human)) was 86% and the residual activity (CDK2 CCNE1 (human)) was 27.8%. It also gave a residual activity (PIM1 (human)) of 36.1%, a residual activity (NEK7 (human)) of 97% and a residual activity (FYN (human)) of 90.6%. For the same compound, the residual activity (NEK2 (human)) was 89.9%, the residual activity (MAPK11 (human)) was 99.5% and the residual activity (PTK2B (human)) was 26.7%. For the same compound, the residual activity (MARK3 (human)) was 13.9%, the residual activity (ROCK2 (human)) was 48.5% and the residual activity (CDK6 CCND1 (human)) was 39.4%. The residual activity (TEC (human)) was 96.4%, the residual activity (EPHA1 (human)) was 81.6% and the residual activity (ADRBK2 (human)) was 106%. It also gave a residual activity (RPS6KB2 (human)) of 21.6%, a residual activity (RAF1 (human)) of 111% and a residual activity (CSNK1G1 (human)) of 93.3%. It also gave a residual activity (STK39 (human)) of 96.7%, a residual activity (TBK1 (human)) of 72.1% and a residual activity (MINK1 (human)) of 2.48%. The residual activity (CLK1 (human)) was 69.9%, the residual activity (CDK5 CDK5R1 p25 (human)) was 21.3% and the residual activity (MAP3K5 (human)) was 49.8%. The residual activity (CDK1 CCNA2 (human)) was 55.5%, the residual activity (EPHA4 (human)) was 90.4% and the residual activity (CHEK2 (human)) was 50.2%. For the same compound, the residual activity (MARK4 (human)) was 10.8%, the residual activity (ADRBK1 (human)) was 103% and the residual activity (PDPK1 (human)) was 63.2%.

`COc1ccc(S(=O)(=O)N(CCO)c2ccccc2CN(C)C/C=C/c2ccc(Cl)cc2)cc1` gave a residual activity (PNCK (human)) of 99.8%, a residual activity (BRSK2 (human)) of 103% and a residual activity (GRK7 (human)) of 114%. The residual activity [1] was 108%, the residual activity (ROS1 (human)) was 95.4% and the residual activity [2] was 91%. It also gave a residual activity (LTK (human)) of 97.9%, a residual activity (PRKCI (human)) of 97.5% and a residual activity (WNK2 (human)) of 97.1%. The residual activity (MELK (human)) was 99.4%, the residual activity (LRRK2 (human)) was 101% and the residual activity (TYRO3 (human)) was 97.1%. It also gave a residual activity (PTK2 (human)) of 104%, a residual activity (MAPK9 (human)) of 85.5% and a residual activity (CDK2 CCNE1 (human)) of 94%. For the same compound, the residual activity (PIM1 (human)) was 104%, the residual activity (NEK7 (human)) was 93.4% and the residual activity (FYN (human)) was 103%. The residual activity (NEK2 (human)) was 86.6%, the residual activity (MAPK11 (human)) was 103% and the residual activity (PTK2B (human)) was 106%. The residual activity (MARK3 (human)) was 102%, the residual activity (ROCK2 (human)) was 94.6% and the residual activity (CDK6 CCND1 (human)) was 92.7%. It also gave a residual activity (TEC (human)) of 101%, a residual activity (EPHA1 (human)) of 101% and a residual activity (ADRBK2 (human)) of 105%. For the same compound, the residual activity (RPS6KB2 (human)) was 97.1%, the residual activity (RAF1 (human)) was 93.7% and the residual activity (CSNK1G1 (human)) was 105%. For the same compound, the residual activity (STK39 (human)) was 92.8%, the residual activity (TBK1 (human)) was 97.1% and the residual activity (MINK1 (human)) was 98.1%. It also gave a residual activity (CLK1 (human)) of 96.4%, a residual activity (CDK5 CDK5R1 p25 (human)) of 97.7% and a residual activity (MAP3K5 (human)) of 93.7%. The residual activity (CDK1 CCNA2 (human)) was 96.5%, the residual activity (EPHA4 (human)) was 99.2% and the residual activity (CHEK2 (human)) was 101%. It also gave a residual activity (MARK4 (human)) of 102%, a residual activity (ADRBK1 (human)) of 97.9% and a residual activity (PDPK1 (human)) of 93.7%.

Work on `Cc1cccc(-c2nc(C(C)(C)C)[nH]c2-c2ccc3c(c2)OCO3)n1` yielded a residual activity (PNCK (human)) of 101%, a residual activity (BRSK2 (human)) of 99.3% and a residual activity (GRK7 (human)) of 103%. For the same compound, the residual activity [1] was 105%, the residual activity (ROS1 (human)) was 101% and the residual activity [2] was 99.8%. The residual activity (LTK (human)) was 99.2%, the residual activity (PRKCI (human)) was 92.8% and the residual activity (WNK2 (human)) was 105%. For the same compound, the residual activity (MELK (human)) was 92.7%, the residual activity (LRRK2 (human)) was 103% and the residual activity (TYRO3 (human)) was 102%. The residual activity (PTK2 (human)) was 98.1%, the residual activity (MAPK9 (human)) was 98.2% and the residual activity (CDK2 CCNE1 (human)) was 95.6%. It also gave a residual activity (PIM1 (human)) of 100%, a residual activity (NEK7 (human)) of 106% and a residual activity (FYN (human)) of 108%. The residual activity (NEK2 (human)) was 107%, the residual activity (MAPK11 (human)) was 93% and the residual activity (PTK2B (human)) was 91.3%. The residual activity (MARK3 (human)) was 73.9%, the residual activity (ROCK2 (human)) was 104% and the residual activity (CDK6 CCND1 (human)) was 95.2%. It also gave a residual activity (TEC (human)) of 123%, a residual activity (EPHA1 (human)) of 124% and a residual activity (ADRBK2 (human)) of 96.3%. The residual activity (RPS6KB2 (human)) was 102%, the residual activity (RAF1 (human)) was 86.2% and the residual activity (CSNK1G1 (human)) was 79.4%. The residual activity (STK39 (human)) was 107%, the residual activity (TBK1 (human)) was 91.9% and the residual activity (MINK1 (human)) was 98.4%. The residual activity (CLK1 (human)) was 98%, the residual activity (CDK5 CDK5R1 p25 (human)) was 90.1% and the residual activity (MAP3K5 (human)) was 103%. The residual activity (CDK1 CCNA2 (human)) was 96.7%, the residual activity (EPHA4 (human)) was 97.3% and the residual activity (CHEK2 (human)) was 96.4%. The residual activity (MARK4 (human)) was 99.7%, the residual activity (ADRBK1 (human)) was 105% and the residual activity (PDPK1 (human)) was 89.8%.

Source: the kinase profiling compilation of Christmann-Franck et al. (2016)
